Like-named read-outs stand apart in the source and are kept apart here.
System: H3677 melanoma cell line
Experiment: cells
Format: cell-based
[1] = read-out: IC50 (μM) with L49-βL

## N[C@@H](Cc1ccc(N(CCCl)CCCl)cc1)C(=O)O [melphalan, 4[bis(2 chloroethyl)amino]-L-phynelalanine, reference compound]
Homo sapiens, H3677
  IC50: 2.8 µM

## C-Mel Cyclobutyl Ester
read-out: IC50 (μM) with βL
  IC50: 0.8 µM
read-out: IC50 (μM) without βL
  IC50: 10 µM

## C-Mel Cyclohexyl Ester
[1]
  IC50: 0.23 µM
read-out: IC50 (μM) with βL
  IC50: 0.083 µM
read-out: IC50 (μM) without βL
  IC50: 1.6 µM

## C-Mel Methyl Ester
read-out: IC50 (μM) with βL
  IC50: 0.0018 µM
read-out: IC50 (μM) without βL
  IC50: 0.65 µM

## C-Mel t-Butyl Ester
read-out: IC50 (μM) with βL
  IC50: 2.1 µM
read-out: IC50 (μM) without βL
  IC50: 32.3 µM

## Glutaryl C-Mel
[1]
  IC50: 2.4 µM
read-out: IC50 (μM) with βL
  IC50: 1.4 µM
read-out: IC50 (μM) without βL
  IC50: 26.3 µM

## Glutaryl C-Mel Cyclohexyl Ester
[1]
  IC50: 0.14 µM
read-out: IC50 (μM) with βL
  IC50: 0.087 µM
read-out: IC50 (μM) without βL
  IC50: 1.86 µM

## Glutaryl C-Mel-D-Phe-NH2
read-out: IC50 (μM) with βL
  IC50: 2.1 µM
read-out: IC50 (μM) without βL
  IC50: 30 µM

## Glutaryl C-Mel-L-Phe-NH2
read-out: IC50 (μM) with βL
  IC50: 0.05 µM
read-out: IC50 (μM) without βL
  IC50: 3.6 µM

## Mel-D-Glu(OMe)2 [Mel-D-Glu bis methyl ester]
read-out: IC50
  IC50: 3.95 µM

## Mel-Gly-nitrophenyl amide
read-out: IC50
  IC50: 1.01 µM

## Mel-L-Glu(OMe)2 [Mel-L-Glu bis methyl ester]
read-out: IC50
  IC50: 1.89 µM

## Mel-L-Met amide
read-out: IC50
  IC50: 0.4 µM

## Mel-L-Phe cyclohexyl amide
read-out: IC50
  IC50: 0.015 µM

## Mel-L-homoPhe-NH2
read-out: IC50
  IC50: 0.09 µM

## Mel-cyclohexyl amide
read-out: IC50
  IC50: 1.57 µM

## Mel-phenethyl amide
read-out: IC50
  IC50: 0.97 µM

## Mel-propargylalanine-NH2
read-out: IC50
  IC50: 0.31 µM

## Melphalan (2-trifluoromethyl)phenethyl ester
read-out: IC50
  IC50: 3 µM

## Melphalan (4-cis-t-butyl) cyclohexyl ester [melphalan cis-4-t-butylcyclohexyl ester]
read-out: IC50
  IC50: 13 µM

## Melphalan (4-n-propyl)phenethyl ester [melphalan (4-butyl)phenethyl ester]
read-out: IC50
  IC50: 4.6 µM

## Melphalan (4-trans-t-butyl) cyclohexyl ester
read-out: IC50
  IC50: 3.6 µM

## Melphalan Cyclobutyl Ester
read-out: IC50
  IC50: 0.2 µM

## Melphalan Cyclohexyl Ester
read-out: IC50
  IC50: 0.074 µM

## Melphalan Cyclooctyl Ester
read-out: IC50
  IC50: 5 µM

## Melphalan Methyl Ester
read-out: IC50
  IC50: 0.054 µM

## Melphalan Phenethyl Ester
read-out: IC50
  IC50: 0.17 µM

## Melphalan t-Butyl Ester
read-out: IC50
  IC50: 3.34 µM

## glutaryl C-Mel t-butyl ester
read-out: IC50 (μM) with βL
  IC50: 2.3 µM
read-out: IC50 (μM) without βL
  IC50: 25 µM

## melphalan amide
read-out: IC50
  IC50: 0.64 µM

## melphalan anilide
read-out: IC50
  IC50: 1.2 µM
